Test results published in patent publication US12686877B2, “Method for producing olivetolic acid in an amoebozoa host species” (LEIBNIZ-INSTITUT FÜR NATURSTOFF-FORSCHUNG UND …, priority 2020, dated 2026).

Tested on: D. discoideum pChR2 strain
Experiment: Growth and metabolic activity monitoring (respiration activity, oxygen transfer rate)
Format: cell-based, Dictyostelium discoideum
Conditions: pChR2 strain supplemented with 1 mM hexanoic acid
Description: Growth and metabolic activity monitoring. For determining the respiration activity, the D. discoideum pChR2, pChR5 and pChR7 strains were grown at an initial density of 1×10^6 cells/mL of HL5 medium supplemented with 1% [w/v] glucose and 20 μg/mL G418 in the presence or absence of 20 μg/mL doxycycline and 1 mM hexanoic acid as indicated. The respiration activity was measured by using the Kuhner TOM (transfer-rate online measurement) system equipped with oxygen partial pressure sensors and infrared sensors to calculate the oxygen transfer rate (OTR) and the carbon dioxide transfer rate (CTR). The cultures were grown in 250 mL TOM flasks for 144 h at 140 rpm and 22° C. without interruption to allow a constant OTR assessment. A filling volume of 52 mL was calculated in order to allow a maximum OTR of 8.5 mmol/L/h43, similar to culture conditions of previous experiments using 25 mL per 100 mL Erlenmeyer shake flasks.

For `CCCCCC(=O)O` [hexanoic acid], the effect on growth was “initial growth inhibitory effect”, the “effect on maximum OTR” value was “did not change the maximum OTR” and the “time at which the oxygen transfer rate (OTR) peaked” value (77 h without supplementation) was 92 h.
